Measured values from ChEMBL document CHEMBL4371041, “Synthesis and evaluation of thieno[3,2-d]pyrimidine derivatives as novel FMS inhibitors” (Bioorg Med Chem Lett, 2019).

Legend:
[1] = Half life in CD-1 mouse at 10 mg/kg, po; assay type: ADME, organism-based; settings: in vivo
[2] = biological target: RAF proto-oncogene serine/threonine-protein kinase (Homo sapiens, UniProt P04049, Y340D/Y341D); assay: Inhibition of recombinant human N-terminal GST-tagged c-RAF Y340D/Y341D double mutant (306 to 648 residues) expressed in baculovirus infected Sf21 insect cells using MEK1(K97R) as substrate in presence of [gamma-33P]-ATP or [gamma-32P]-ATP
[3] = biological target: Angiopoietin-1 receptor (Homo sapiens, UniProt Q02763); assay: Inhibition of recombinant human N-terminal His6-tagged Tie2 (771 to end residues) expressed in baculovirus infected Sf21 insect cells using Poly (Glu4-Tyr) (4:1) as substrate in presence of [gamma-33P]-ATP or [gamma-32P]-ATP
[4] = biological target: Tyrosine-protein kinase Lck (Homo sapiens) (UniProt P06239); assay: Inhibition of recombinant human full-length N-terminal His6-tagged LCK expressed in baculovirus infected Sf21 insect cells at 1 uM in presence of [gamma-33P]-ATP or [gamma-32P]-ATP relative to control
[5] = biological target: Platelet-derived growth factor receptor alpha (Homo sapiens) (UniProt P16234); assay: Inhibition of recombinant human N-terminal His6-tagged PDGFRalpha (550 to end residues) expressed in baculovirus infected Sf21 insect cells at 1 uM using Poly (Glu4-Tyr) (4:1) as substrate in presence of [gamma-33P]-ATP or [gamma-32P]-ATP relative to control
[6] = biological target: Fibroblast growth factor receptor 1 (Homo sapiens, UniProt P11362); assay: Inhibition of recombinant human N-terminal GST-tagged FGFR1 (456 to 765 residues) expressed in baculovirus infected Sf21 insect cells at 1 uM using IGF-IRtide (12-527) as substrate in presence of [gamma-33P]-ATP or [gamma-32P]-ATP relative to control
Fibroblast growth factor receptor 1, sequence (P11362 22-822 limits assumed): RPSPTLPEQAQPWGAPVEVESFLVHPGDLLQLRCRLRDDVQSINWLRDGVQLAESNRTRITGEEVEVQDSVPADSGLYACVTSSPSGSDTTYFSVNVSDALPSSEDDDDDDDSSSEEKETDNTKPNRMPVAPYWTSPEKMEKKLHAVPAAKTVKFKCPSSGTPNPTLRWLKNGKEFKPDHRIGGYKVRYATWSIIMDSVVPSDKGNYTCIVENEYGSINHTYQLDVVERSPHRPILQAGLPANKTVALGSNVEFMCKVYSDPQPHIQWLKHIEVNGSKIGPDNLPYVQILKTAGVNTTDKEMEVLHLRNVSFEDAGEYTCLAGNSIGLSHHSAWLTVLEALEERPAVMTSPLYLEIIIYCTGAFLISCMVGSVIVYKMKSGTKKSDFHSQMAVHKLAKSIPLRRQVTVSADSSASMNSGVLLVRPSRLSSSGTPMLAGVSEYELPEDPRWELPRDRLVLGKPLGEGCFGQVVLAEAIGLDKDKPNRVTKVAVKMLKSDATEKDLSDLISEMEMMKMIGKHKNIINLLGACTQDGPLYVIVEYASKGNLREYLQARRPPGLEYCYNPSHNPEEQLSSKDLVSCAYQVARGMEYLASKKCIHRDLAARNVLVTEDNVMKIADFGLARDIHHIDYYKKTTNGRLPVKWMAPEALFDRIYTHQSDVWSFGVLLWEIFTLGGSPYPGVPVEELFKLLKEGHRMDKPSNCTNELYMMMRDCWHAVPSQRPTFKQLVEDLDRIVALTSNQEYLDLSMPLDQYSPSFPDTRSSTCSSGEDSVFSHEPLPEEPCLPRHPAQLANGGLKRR

Tyrosine-protein kinase Lck (Homo sapiens), sequence (P06239 2-509 limits assumed): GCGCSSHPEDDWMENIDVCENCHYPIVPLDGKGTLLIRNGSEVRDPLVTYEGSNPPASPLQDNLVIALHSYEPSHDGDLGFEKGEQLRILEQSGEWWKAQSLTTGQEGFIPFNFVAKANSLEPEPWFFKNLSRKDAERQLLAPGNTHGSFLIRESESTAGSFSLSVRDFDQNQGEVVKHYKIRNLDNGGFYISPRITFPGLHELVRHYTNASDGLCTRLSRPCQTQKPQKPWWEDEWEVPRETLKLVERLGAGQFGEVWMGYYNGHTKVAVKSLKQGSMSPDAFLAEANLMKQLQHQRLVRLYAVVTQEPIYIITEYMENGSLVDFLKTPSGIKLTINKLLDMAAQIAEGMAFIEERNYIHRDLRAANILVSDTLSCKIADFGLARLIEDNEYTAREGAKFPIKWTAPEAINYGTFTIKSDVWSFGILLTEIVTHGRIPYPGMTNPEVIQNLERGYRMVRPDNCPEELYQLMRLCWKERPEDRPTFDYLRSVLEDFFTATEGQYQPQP
Platelet-derived growth factor receptor alpha (Homo sapiens), sequence (P16234 whole entry, the tested form may be a part): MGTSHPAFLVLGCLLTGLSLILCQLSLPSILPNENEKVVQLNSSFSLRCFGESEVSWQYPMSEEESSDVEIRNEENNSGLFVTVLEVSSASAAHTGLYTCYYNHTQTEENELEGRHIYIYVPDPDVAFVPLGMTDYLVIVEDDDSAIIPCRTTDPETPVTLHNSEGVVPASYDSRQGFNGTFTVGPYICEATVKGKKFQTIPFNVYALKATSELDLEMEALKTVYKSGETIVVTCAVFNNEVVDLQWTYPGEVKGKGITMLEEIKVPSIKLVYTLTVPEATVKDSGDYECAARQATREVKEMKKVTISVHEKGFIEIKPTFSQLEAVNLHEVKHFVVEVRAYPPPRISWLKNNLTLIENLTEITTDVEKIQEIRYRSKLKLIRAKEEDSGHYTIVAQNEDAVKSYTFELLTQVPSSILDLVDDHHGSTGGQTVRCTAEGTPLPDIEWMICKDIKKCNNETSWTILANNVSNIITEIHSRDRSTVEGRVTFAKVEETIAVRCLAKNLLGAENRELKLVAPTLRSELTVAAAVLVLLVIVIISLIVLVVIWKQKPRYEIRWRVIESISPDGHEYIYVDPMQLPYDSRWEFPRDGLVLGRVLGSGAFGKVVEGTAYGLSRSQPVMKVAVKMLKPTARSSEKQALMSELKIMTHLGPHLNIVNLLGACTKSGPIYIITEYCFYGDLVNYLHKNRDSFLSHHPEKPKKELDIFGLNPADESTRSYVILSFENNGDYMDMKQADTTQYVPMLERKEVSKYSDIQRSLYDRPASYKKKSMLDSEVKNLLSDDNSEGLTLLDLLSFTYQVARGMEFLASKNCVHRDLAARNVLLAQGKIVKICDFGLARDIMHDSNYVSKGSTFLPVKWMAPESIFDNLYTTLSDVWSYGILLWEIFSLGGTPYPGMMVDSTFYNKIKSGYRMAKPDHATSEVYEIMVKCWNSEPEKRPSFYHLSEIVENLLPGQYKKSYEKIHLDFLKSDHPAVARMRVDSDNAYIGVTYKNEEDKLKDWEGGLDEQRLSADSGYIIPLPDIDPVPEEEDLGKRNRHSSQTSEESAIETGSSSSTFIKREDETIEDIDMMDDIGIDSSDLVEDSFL
RAF proto-oncogene serine/threonine-protein kinase, sequence (P04049 whole entry Y340D/Y341D, the tested form may be a part): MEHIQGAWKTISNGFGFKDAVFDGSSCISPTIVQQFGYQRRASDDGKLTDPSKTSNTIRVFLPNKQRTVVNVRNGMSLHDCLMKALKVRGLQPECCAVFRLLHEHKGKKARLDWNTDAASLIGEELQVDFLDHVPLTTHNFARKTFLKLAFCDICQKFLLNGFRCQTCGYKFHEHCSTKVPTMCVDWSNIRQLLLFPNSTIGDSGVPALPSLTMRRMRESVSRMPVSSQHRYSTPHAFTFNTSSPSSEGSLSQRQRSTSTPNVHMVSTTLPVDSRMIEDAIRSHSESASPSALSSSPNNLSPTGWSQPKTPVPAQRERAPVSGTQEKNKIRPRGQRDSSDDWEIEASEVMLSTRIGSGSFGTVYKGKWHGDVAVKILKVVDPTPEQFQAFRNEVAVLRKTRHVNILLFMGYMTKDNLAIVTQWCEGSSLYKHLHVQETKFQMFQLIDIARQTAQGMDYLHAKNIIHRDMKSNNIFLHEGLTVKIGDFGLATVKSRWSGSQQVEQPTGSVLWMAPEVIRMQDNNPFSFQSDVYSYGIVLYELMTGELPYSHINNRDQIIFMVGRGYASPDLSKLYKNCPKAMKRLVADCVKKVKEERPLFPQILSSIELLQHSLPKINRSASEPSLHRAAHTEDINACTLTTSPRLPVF
Angiopoietin-1 receptor, sequence (Q02763 whole entry): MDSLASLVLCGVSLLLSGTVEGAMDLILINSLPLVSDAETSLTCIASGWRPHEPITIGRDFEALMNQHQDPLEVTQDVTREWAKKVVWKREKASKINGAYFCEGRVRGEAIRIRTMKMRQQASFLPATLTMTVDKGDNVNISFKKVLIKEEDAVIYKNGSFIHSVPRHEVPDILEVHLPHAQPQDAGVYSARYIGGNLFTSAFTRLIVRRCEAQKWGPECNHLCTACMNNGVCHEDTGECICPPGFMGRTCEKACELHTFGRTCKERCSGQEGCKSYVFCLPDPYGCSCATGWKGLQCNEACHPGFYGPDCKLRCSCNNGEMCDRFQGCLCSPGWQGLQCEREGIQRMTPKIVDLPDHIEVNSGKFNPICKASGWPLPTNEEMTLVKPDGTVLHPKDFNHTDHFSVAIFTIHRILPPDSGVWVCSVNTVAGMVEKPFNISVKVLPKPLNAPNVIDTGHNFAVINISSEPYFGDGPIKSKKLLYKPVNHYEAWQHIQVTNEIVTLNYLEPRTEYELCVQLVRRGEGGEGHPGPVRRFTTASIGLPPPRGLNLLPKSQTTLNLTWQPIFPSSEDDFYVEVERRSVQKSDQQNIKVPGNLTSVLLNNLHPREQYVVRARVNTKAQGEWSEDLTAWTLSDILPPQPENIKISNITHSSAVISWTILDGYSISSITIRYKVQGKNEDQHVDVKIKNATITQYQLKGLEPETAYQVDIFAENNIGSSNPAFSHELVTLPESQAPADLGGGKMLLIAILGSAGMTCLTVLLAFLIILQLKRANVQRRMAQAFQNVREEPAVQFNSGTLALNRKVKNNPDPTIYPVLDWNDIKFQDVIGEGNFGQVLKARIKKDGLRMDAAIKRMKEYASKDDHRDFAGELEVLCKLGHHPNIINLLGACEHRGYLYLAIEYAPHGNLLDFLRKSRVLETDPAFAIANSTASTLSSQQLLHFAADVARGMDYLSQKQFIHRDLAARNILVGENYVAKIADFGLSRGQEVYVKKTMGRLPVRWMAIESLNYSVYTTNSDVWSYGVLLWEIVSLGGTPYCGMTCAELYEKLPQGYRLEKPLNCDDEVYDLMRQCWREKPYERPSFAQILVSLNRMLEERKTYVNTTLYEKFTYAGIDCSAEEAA

Cc1cccc(Cn2nc(C)c3c(NC(=O)c4csc5c(N)ncnc45)cccc32)n1
half-life [1]: 2.6 h
IC50 [2]: 80 nM
IC50 [3]: 208 nM
inhibition [4]: 20%
inhibition [5]: 2%
inhibition [6]: > 60%
